Earlier results as cited in patent US11413253B2, “Nanoparticle delivery systems” (Celator Pharmaceuticals, Inc., priority 2015, dated 2022).

Conditions: shown in the art

Row | SMILES | plasma clearance of free drug
1 | CCNC(=O)c1noc(-c2cc(C(C)C)c(O)cc2O)c1-c1ccc(CN2CCOCC2)cc1 [free AUY922, AUY922] | cleared quite rapidly
2 | CC(=O)O[C@@]12CO[C@@H]1C[C@H](O)[C@@]1(C)C(=O)[C@H](O)C3=C(C)[C@@H](OC(=O)[C@H](O)[C@@H](NC(=O)OC(C)(C)C)c4ccccc4)C[C@@](O)([C@@H](OC(=O)c4ccccc4)[C@H]21)C3(C)C [free docetaxel, docetaxel] | cleared quite rapidly
